Results published in US9884832B2 (priority 2011, dated 2018).
Where two headings read alike, the source gives them in different places.

Tests used:
[1] = biological target: AM2 V27A (valine→alanine mutation at residue 27 in the M2 protein) (Influenza A virus, UniProt P0DOF5, V27A); assay type: cell-based, influenza virus A/Udorn/72
[2] = biological target: AM2 S31N (serine→asparagine mutation at residue 31 in the M2 protein) (Influenza A virus, UniProt P0DOF5, S31N); assay type: cell-based, influenza virus A/Udorn/72

Row | SMILES | V27A OOcyte Inhibition at 100 uM (%) [1] | S31N OOcyte Inhibition at 100 uM (%) [2] | V27A OOcyte Inhibition at 100 uM (%) ([1]; pH 5.5) | S31N OOcyte Inhibition at 100 uM (%) ([2]; pH 5.5)
1 | C(=C\c1ccccc1)/CNC12CC3CC(CC(C3)C1)C2 [Example 199a, N-cinnamyladamantan-1-amine] | B (key: (A)=31-95%; (B)=0-30%) | A (key: (A)=31-95%; (B)=0-30%) |  | 
2 | c1cc2cc(CNC34CC5CC(CC(C5)C3)C4)sc2s1 [Example 79, Adamantan-1-yl-thieno[2,3-b]thiophen-2-ylmethyl-amine] |  |  | B (key: (A)=31-95%; (B)=0-30%) | A (key: (A)=31-95%; (B)=0-30%)
3 | c1csc(CNC23CC4CC(CC(C4)C2)C3)c1 [Example 70a, Adamantan-1-yl-thiophen-2-ylmethyl-amine] | B (key: (A)=31-95%; (B)=0-30%) | B (key: (A)=31-95%; (B)=0-30%) |  | 
4 | CSc1ccc(CNC23CC4CC(CC(C4)C2)C3)cc1 [Example 23, Adamantan-1-yl-(4-methylsulfanyl-benzyl)-amine] |  |  | B (key: (A)=31-95%; (B)=0-30%) | A (key: (A)=31-95%; (B)=0-30%)
5 | Oc1cc(-c2ccccc2)ccc1CNC12CC3CC(CC(C3)C1)C2 [Example 47a, 4-(Adamantan-1-ylaminomethyl)-biphenyl-3-ol] | B (key: (A)=31-95%; (B)=0-30%) | A (key: (A)=31-95%; (B)=0-30%) |  | 
6 | Cc1nc(-c2ccc(CNC34CC5CC(CC(C5)C3)C4)s2)cs1 [Example 156a, N-((5-(2-methylthiazol-4-yl)thiophen-2-yl)methyl)adamantan-1-amine] | A (key: (A)=31-95%; (B)=0-30%) | A (key: (A)=31-95%; (B)=0-30%) |  | 
7 | Fc1ccc(C(F)(F)F)cc1CNC12CC3CC(CC(C3)C1)C2 [Example 62, Adamantan-1-yl-(2-fluoro-5-trifluoromethyl-benzyl)-amine] |  |  | B (key: (A)=31-95%; (B)=0-30%) | B (key: (A)=31-95%; (B)=0-30%)
8 | Cn1c(CNC23CC4CC(CC(C4)C2)C3)cc2sccc21 [Example 172a, Adamantan-1-yl-(4-methyl-4H-thieno[3,2-b]pyrrol-5-ylmethyl)-amine] | B (key: (A)=31-95%; (B)=0-30%) | B (key: (A)=31-95%; (B)=0-30%) |  | 
9 | COc1cc(CNC23CC4CC(CC(C4)C2)C3)ccc1O [Example 50, 4-(Adamantan-1-ylaminomethyl)-2-methoxy-phenol] |  |  | A (key: (A)=31-95%; (B)=0-30%) | B (key: (A)=31-95%; (B)=0-30%)
10 | O=C1CCCN1c1ccc(CNC23CC4CC(CC(C4)C2)C3)cc1 [Example 45a, 1-(4-((adamantan-1-ylamino)methyl)phenyl)pyrrolidin-2-one] | B (key: (A)=31-95%; (B)=0-30%) | A (key: (A)=31-95%; (B)=0-30%) |  | 
11 | Cc1ccc(-c2ccc(CNC34CC5CC(CC(C5)C3)C4)cc2)o1.Cl [Example 32a, N-(4-(5-Methylfuran-2-yl)benzyl)adamantan-1-amine hydrochloride] | B (key: (A)=31-95%; (B)=0-30%) | A (key: (A)=31-95%; (B)=0-30%) |  | 
12 | N=C(Nc1ccc(O)cc1)C12CC3CC(CC(C3)C1)C2 [Example 5] |  |  | B (key: (A)=31-95%; (B)=0-30%) | B (key: (A)=31-95%; (B)=0-30%)
13 | F[B-](F)(F)c1ccc(CNC23CC4CC(CC(C4)C2)C3)cc1.[K+] [Example 2a] | A (key: (A)=31-95%; (B)=0-30%) | B (key: (A)=31-95%; (B)=0-30%) |  | 
14 | Oc1c(CNC23CC4CC(CC(C4)C2)C3)ccc2ccccc12 [Example 97, 2-(Adamantan-1-ylaminomethyl)-naphthalen-1-ol] |  |  | B (key: (A)=31-95%; (B)=0-30%) | A (key: (A)=31-95%; (B)=0-30%)
15 | OCc1ccc(CNC23CC4CC(CC(C4)C2)C3)o1 [Example 77, [5-(Adamantan-1-ylaminomethyl)-furan-2-yl]methanol] |  |  | B (key: (A)=31-95%; (B)=0-30%) | B (key: (A)=31-95%; (B)=0-30%)
16 | c1nc(-c2ccc(CNC34CC5CC(CC(C5)C3)C4)cc2)no1 [Example 40, Adamantan-1-yl-(4-[1,2,4]oxadiazol-3-yl-benzyl)-amine] |  |  | B (key: (A)=31-95%; (B)=0-30%) | A (key: (A)=31-95%; (B)=0-30%)
17 | Oc1c(CNC23CC4CC(CC(C4)C2)C3)ccc2ccccc12 [Example 53a, 2-(Adamantan-1-ylaminomethyl)-naphthalen-1-ol] | B (key: (A)=31-95%; (B)=0-30%) | A (key: (A)=31-95%; (B)=0-30%) |  | 
18 | c1cc2cn[nH]c2cc1CNC12CC3CC(CC(C3)C1)C2 [Example 95, Adamantan-1-yl-(1H-indazol-6-ylmethyl)-amine] |  |  | A (key: (A)=31-95%; (B)=0-30%) | B (key: (A)=31-95%; (B)=0-30%)

Row | SMILES | V27A OOcyte Inhibition at 100 uM (%) [1] | S31N OOcyte Inhibition at 100 uM (%) [2] | V27A OOcyte Inhibition at 100 uM (%) ([1]; pH 5.5) | S31N OOcyte Inhibition at 100 uM (%) ([2]; pH 5.5)
19 | Cc1ccsc1CNC12CC3CC(CC(C3)C1)C2 [Example 76a, N-((3-methylthiophen-2-yl)methyl)adamantan-1-amine] | B (key: (A)=31-95%; (B)=0-30%) | B (key: (A)=31-95%; (B)=0-30%) |  | 
20 | c1csc(-c2ccc(CNC34CC5CC(CC(C5)C3)C4)cc2)c1 [Example 44, N-(4-(Thiophen-2-yl)benzyl)adamantan-1-amine] |  |  | B (key: (A)=31-95%; (B)=0-30%) | A (key: (A)=31-95%; (B)=0-30%)
21 | Oc1ccc(CNC23CC4CC(CC(C4)C2)C3)c(O)c1O [Example 65, 4-(Adamantan-1-ylaminomethyl)-benzene-1,2,3-triol] |  |  | A (key: (A)=31-95%; (B)=0-30%) | B (key: (A)=31-95%; (B)=0-30%)
22 | COc1cc(O)ccc1CNC12CC3CC(CC(C3)C1)C2 [Example 56, 4-(Adamantan-1-ylaminomethyl)-3-methoxy-phenol] |  |  | B (key: (A)=31-95%; (B)=0-30%) | B (key: (A)=31-95%; (B)=0-30%)
23 | COc1ccc(-c2nnc(CNC34CC5CC(CC(C5)C3)C4)o2)cc1 [Example 127a, N-((5-(4-methoxyphenyl)-1,3,4-oxadiazol-2-yl)methyl)adamantan-1-amine] | B (key: (A)=31-95%; (B)=0-30%) | A (key: (A)=31-95%; (B)=0-30%) |  | 
24 | c1coc(-c2ccc(CNC34CC5CC(CC(C5)C3)C4)cc2)c1 [Example 31a, N-(4-(Furan-2-yl)benzyl)adamantan-1-amine] | B (key: (A)=31-95%; (B)=0-30%) | A (key: (A)=31-95%; (B)=0-30%) |  | 
25 | COc1ccc2cc(CNC34CC5CC(CC(C5)C3)C4)sc2c1 [Example 185a, N-((6-methoxybenzo[b]thiophen-2-yl)methyl)adamantan-1-amine] | B (key: (A)=31-95%; (B)=0-30%) | A (key: (A)=31-95%; (B)=0-30%) |  | 
26 | c1c(CNC23CC4CC(CC(C4)C2)C3)sc2c1CSC2 [Example 84, Adamantan-1-yl-(4,6-dihydro-thieno[3,4-b]thiophen-2-ylmethyl)-amine] |  |  | B (key: (A)=31-95%; (B)=0-30%) | A (key: (A)=31-95%; (B)=0-30%)
27 | c1cc(CNC23CC4CC(CC(C4)C2)C3)cs1 [Example 68a, Adamantan-1-yl-thiophen-3-ylmethyl-amine] | A (key: (A)=31-95%; (B)=0-30%) | B (key: (A)=31-95%; (B)=0-30%) |  | 
28 | FC(F)(F)c1ccc(CNC23CC4CC(CC(C4)C2)C3)cc1 [Example 5a, Adamantan-1-yl-(4-trifluoromethyl-benzyl)-amine] | B (key: (A)=31-95%; (B)=0-30%) | B (key: (A)=31-95%; (B)=0-30%) |  | 
29 | NCc1ccc(CNC23CC4CC(CC(C4)C2)C3)cc1 [Example 13, Adamantan-1-yl-(4-aminomethyl-benzyl)-amine] |  |  | A (key: (A)=31-95%; (B)=0-30%) | B (key: (A)=31-95%; (B)=0-30%)
30 | [O-][S+]1Cc2cc(CNC34CC5CC(CC(C5)C3)C4)sc2C1 (stereo not drawn) [Example 85, Adamantan-1-yl-(5-oxo-5,6-dihydro-4H-5M-thieno[3,4-b]thiophen-2-ylmethyl)-amine] |  |  | B (key: (A)=31-95%; (B)=0-30%) | B (key: (A)=31-95%; (B)=0-30%)
31 | c1ccc2sc(CNC34CC5CC(CC(C5)C3)C4)nc2c1 [Example 91, Adamantan-1-yl-benzothiazol-2-ylmethyl-amine] |  |  | B (key: (A)=31-95%; (B)=0-30%) | A (key: (A)=31-95%; (B)=0-30%)
32 | Oc1ccc(CN2CCC3(CCCCC3)CC2)c(O)c1 [Example 115, 4-(3-Aza-spiro[5.5]undec-3-ylmethyl)-benzene-1,3-diol] |  |  | B (key: (A)=31-95%; (B)=0-30%) | B (key: (A)=31-95%; (B)=0-30%)
33 | Oc1cccc(CNC23CC4CC(CC(C4)C2)C3)c1O [Example 64, 3-(Adamantan-1-ylaminomethyl)-benzene-1,2-diol] |  |  | A (key: (A)=31-95%; (B)=0-30%) | B (key: (A)=31-95%; (B)=0-30%)
34 | COc1ccc(CNC23CC4CC(CC(C4)C2)C3)cc1O [Example 61, 5-(Adamantan-1-ylaminomethyl)-2-methoxy-phenol] |  |  | A (key: (A)=31-95%; (B)=0-30%) | B (key: (A)=31-95%; (B)=0-30%)
35 | c1cn2cc(CNC3C4CC5CC(C4)CC3C5)nc2s1 (stereo not drawn) [Example 107, Adamantan-2-yl-imidazo[2,1-b]thiazol-6-ylmethyl-amine] |  |  | B (key: (A)=31-95%; (B)=0-30%) | B (key: (A)=31-95%; (B)=0-30%)
36 | COc1ccccc1COc1ccc(CNC23CC4CC(CC(C4)C2)C3)cc1 [Example 15a, Adamantan-1-yl-[4-(2-methoxy-benzyloxy)-benzyl]-amine] | B (key: (A)=31-95%; (B)=0-30%) | A (key: (A)=31-95%; (B)=0-30%) |  | 
